Test results taken from publication PMC12250347, “Calcium-dependent pathway as a primary cause of hypoxic RGC damage in monkey retinal explants” (PLOS One, 2025).
Entries after “also recorded” stand apart in the source; their conditions may differ.

Experiments:
[1] = tested on: calpain-specific SBDP150 in nerve fiber layer (NFL); assay: SBDP150 immunostaining of flat-mounted retinal explants under hypoxia/reoxygenation; assay type: cell-based, rhesus macaques (Macaca mulatta); conditions: H16R8
Experimental: (§1) Retina explant culture was performed as described in our previous report, except for the induction of hypoxia. Briefly, a hypoxic chamber (Coy Laboratory Products, Grass Lake, MI, USA) was controlled at 0.3% oxygen with a 95% N2/5% CO2 gas mixture. Retinas were dissected into fan-shaped explants with 6 or 7 petals (> 5 mm) in HBSS. Each explant was placed with the RGC side facing up on a Millicell organotypic standing insert (0.4 μm, 30 mm diameter, MilliporeSigma) in six-well, culture plates. They were cultured for 2 hr at 37°C under 95% N2/5% CO2 in Neurobasal-A medium supplemented with B27, N2 supplements, 2 mM L-glutamine (Thermo Fisher Scientific, Waltham, MA, USA), and 100 μg/mL primocin (Invivogen, San Diego, CA, USA). Retinal explants were then chamber-cultured under hypoxic conditions for 16 hr in a culture medium with 0.5 mM glucose, under 0.3% oxygen. The retinas were then re-oxygenated for 8 hr in a culture medium with 5.5 mM glucose. Normoxic control retinas were cultured for 24 hr in a culture medium with 5.5 mM glucose. When present, calpain inhibitors (SNJ-1945, PD-151746, C2I, and ABT-957) and cathepsin inhibitors (Odanacatib and SID26681509) in 0.1% DMSO were used at the final concentration of 10 or 100 μM in the medium. BAPTA (Thermo Fisher Scientific) and BAPTA-AM (Thermo Fisher Scientific) were also used at a final concentration of 3 or 10 mM or a final concentration of 100 or 500 μM, respectively.
(§2) All inhibitors and BAPTA were treated simultaneously with hypoxia induction, and BAPTA-AM treatment was 2 hr before hypoxia induction.
Formalin-fixed retinal explants were incubated overnight at −30°C in 1: 4 dilutions of DMSO-ethanol to promote antibody penetration. The explants underwent two cycles of freezing and thawing between −80°C and room temperature in 100% ethanol for 20 min. The retinas were then rehydrated in 70%, 50%, and 15% ethanol and PBS for 20 min each, followed by overnight incubation with 0.2% Triton X-100. The samples were stained with antibodies specific for calpain-specific SBDP150 [8] (1:100 dilution, Senju Pharmaceutical) and β-III tubulin (a neuron marker, 1:500 dilution, Merck). The nerve fiber layer (NFL) was observed approximately 5 mm from the tips of the fan-shaped retinal flat mounts. Confocal images were taken using a model LSM 880 spectral confocal system with a 20x 0.8 NA lens (Carl Zeiss, Oberkochen, Germany).

[2] = tested on: calpain 1 activation and proteolysis of α-spectrin; assay: Immunoblotting of retinal explants under hypoxia/reoxygenation; assay type: cell-based, rhesus macaques (Macaca mulatta); conditions: H16R8; BAPTA 3 or 10 mM, BAPTA-AM 0.1 or 0.5 mM
Experimental: as §1, §2
(§3) Each retinal explant was sonicated in RIPA Lysis and Extraction Buffer (Thermo Fisher Scientific), with protease inhibitors cocktail (Complete Mini-EDTA-free; MilliporeSigma). Protein concentrations in lysates were measured by BCA assay (Pierce BCA Protein Assay Kit, Thermo Fisher Scientific) using bovine serum albumin as a standard. For immunoblotting, 5 μg of each sample was loaded and run on 4% to 12% gradient or 10% SDS-PAGE gels (NuPAGE Bis-Tris Protein Gels, Thermo Fisher Scientific) with 2-(N-morpholino)ethanesulfonic acid buffer or 3-(N-morpholino) propanesulfonic acid buffer (Thermo Fisher Scientific). Proteins were then electrotransferred to a polyvinylidene fluoride membrane (MilliporeSigma) at 100 V for 60 min or 1.5 hr. Membranes were then blocked with 5% skim milk in Tris-buffer saline (Bio-Rad Laboratories, Hercules, CA, USA) containing 0.05% Tween 20. Each membrane was probed with primary antibodies against α-spectrin (1:2000 dilution, Enzo Life Sciences, Farmingdale, NY, USA), SBDP150 (1:1000 dilution, Senju Pharmaceutical), calpain 1 (1:1000 dilution, Thermo Fisher Scientific), calpain 2 (1:500, GeneTex, Irvine, CA, USA), cathepsin K (1:500 dilution, Abcam), and β-actin (1:1000 dilution, Merck). For calpain 1, immunoreactivity was visualized using a secondary antibody conjugated to alkaline phosphatase and the AP Conjugate Substrate Kit (Bio-Rad Laboratories). For other proteins, immunoreactivities were visualized using secondary antibodies conjugated with rabbit (Santa Cruz Biotechnology) or mouse horseradish peroxidase enzyme (Cytiva, Wilmington, DE, USA) and ECL Plus detection reagents (Cytiva). Images of the membranes were captured with FluorChem FC2 imager (Cell Biosciences, Santa Clara, CA, USA). The conversion of pro-cathepsin K (38 kDa) to its mature form (27 kDa) was used as an indicator of cathepsin K activation.

[3] = tested on: RGCs in monkey retinal explants; assay: PI staining and RGC counting in retinal explants under hypoxia/reoxygenation; assay type: cell-based, rhesus macaques (Macaca mulatta); conditions: H16R8; calcium chelator at higher concentration (BAPTA 10 mM; BAPTA-AM 0.5 mM, 2 hr before hypoxia)
From the text: Globes were obtained from rhesus macaques (Macaca mulatta) at 1–7 years of age from the Oregon National Primate Research Center (Beaverton, OR, USA). The wide range of ages was unavoidable because they became available from experiments that were unrelated to the present studies. These eyes were acceptable for the purpose of our experiments. The eyes were dissected within 5 hr after death, and excised eyes were soaked in cold Hanks’ balanced salt solution (HBSS; Corning, NY, USA) or Dulbecco’s phosphate-buffered saline (DPBS; Corning). Experimental animals were handled in accordance with the Research in Vision and Ophthalmology Statement for the Use of Animals in Ophthalmic and Vision Research and with the Guiding Principles in the Care and Use of Animals (Department of Health Education and Welfare Publication National Institutes of Health 80−23).
as §1, §2
To assess the disruption of membrane barrier function, propidium iodide (PI) was utilized. Following hypoxia/reoxygenation treatment, retinal explants were incubated for 20 min in a medium containing a final concentration of 2 μg/ml of PI. For quantitative analysis, the RGC marker, RNA-binding protein with multiple splicing (RBPMS) was used at a 1:100 dilution (PhosphoSolutions, Aurora, CO, USA). RBPMS-positive and PI-positive cells in the ganglion cell layer were counted in 2 images from 2 square areas (775 × 775 μm each) located 3–5 mm and 5–7 mm away from the tips of the fan-shaped retinal flat mounts. The percentage of PI-positive RGCs was calculated as [the number of PI and RBPMS-double positive cells/the number of all RBPMS-positive cells] × 100.

[4] = tested on: purified porcine calpain 2; assay: Calpain-Glo Protease Assay; assay type: biochemical; conditions: 5 mM CaCl2, 10 min, room temperature; mean of two experiments
From the text: The porcine kidney was obtained from DART Co., Ltd. as part of a program aimed at the effective utilization of livestock by-products in Hokkaido, Japan. The procurement process followed ethical guidelines from Livestock Industry Bureau MAFF-J (ministry of agriculture, forestry and fisheries of Japan) for farm animal use, ensuring compliance with relevant regulations. Two porcine kidneys were rapidly frozen after removal, trimmed free of excess tissue or renal pelvis, and cut into small pieces (approximately 2 × 2 cm) before they thawed. About 250 g of these pieces were homogenized in 1200 mL of ice-cold 20 mM Tris-HCl (pH 8.0) with 5 mM ethylenediaminetetraacetic acid (EDTA), 0.1% 2-mercaptoethanol (2-ME), 0.1 mg/mL Pefabloc SC (MilliporeSigma, Burlington, MA, USA), 40 µg/mL bestatin, and 4 µg/mL pepstatin in a Waring blender HGBSS (Waring; Stamford, CT, USA) at 19,000 rpm using several bursts of 10 sec each with 20 sec cooling periods between each burst. The homogenate was centrifuged at 25,000 × g for 15 min at 4°C, and the supernatant was filtered through glass wool and a 5 µm filter (Merck) to remove floating lipids. The purification procedure was performed according to the method of Thompson and Goll with some minor modifications: the DEAE-cellulose and the DEAE-TSK ToyoPearl 650S columns were substituted with DEAE sepharose fast flow (Merck) and TSKgel DEAE-5PW (30) (Tosoh; Tokyo, Japan) columns, respectively. After purification, calpain-2 was dialyzed, and glycerol was added for freeze-thaw protection. The final buffer formulation was 20 mM imidazole, 5 mM 2-ME, 1 mM EDTA, 1 mM EGTA, and 20% glycerol.
(§4) For measurement of inhibitory activities against calpains in vitro, Calpain-Glo Protease Assay (Promega; Madison, WI, USA) was performed using human erythrocyte calpain 1 (MilliporeSigma) and purified porcine calpain 2. Briefly, 24 µL of each calpain diluted with 20 mM Tris-HCl (pH 7.4), 1 µL of each inhibitor, and 25 µL of reaction buffer including CaCl2 in a 96-well plate was incubated for 10 min at room temperature. The final concentration of CaCl2 in the reaction solution was 5 mM. The luminescence was measured using a microplate reader (GloMax Discover System; Promega). IC50 values from two independent experiments were averaged.

[5] = tested on: calpains 1 and 2 in monkey retinal lysate; assay: In vitro inhibitory assay of calpains from retinal lysate (CaCl2, immunoblotting); assay type: biochemical; conditions: non-cultured monkey retina lysate, 10 mM CaCl2, 2 hr, 37°C; inhibitor at 1, 10 and 100 µM
Experimental: as §3
To confirm the isozyme specificities of calpain inhibitors in vitro, non-cultured monkey retinas were sonicated in a buffer containing 20 mM Tris (pH 7.5), 5 mM EGTA, 5 mM EDTA, 2 mM DTE. […]

[6] = target: T1, human erythrocyte calpain 1 (Homo sapiens, UniProt P07384); assay: Calpain-Glo Protease Assay; assay type: biochemical; conditions: 5 mM CaCl2, 10 min, room temperature; mean of two experiments
T1 construct: human erythrocyte calpain 1 (MilliporeSigma); purchased MilliporeSigma; host or cells: human erythrocytes
T1 sequence (P07384 1-714): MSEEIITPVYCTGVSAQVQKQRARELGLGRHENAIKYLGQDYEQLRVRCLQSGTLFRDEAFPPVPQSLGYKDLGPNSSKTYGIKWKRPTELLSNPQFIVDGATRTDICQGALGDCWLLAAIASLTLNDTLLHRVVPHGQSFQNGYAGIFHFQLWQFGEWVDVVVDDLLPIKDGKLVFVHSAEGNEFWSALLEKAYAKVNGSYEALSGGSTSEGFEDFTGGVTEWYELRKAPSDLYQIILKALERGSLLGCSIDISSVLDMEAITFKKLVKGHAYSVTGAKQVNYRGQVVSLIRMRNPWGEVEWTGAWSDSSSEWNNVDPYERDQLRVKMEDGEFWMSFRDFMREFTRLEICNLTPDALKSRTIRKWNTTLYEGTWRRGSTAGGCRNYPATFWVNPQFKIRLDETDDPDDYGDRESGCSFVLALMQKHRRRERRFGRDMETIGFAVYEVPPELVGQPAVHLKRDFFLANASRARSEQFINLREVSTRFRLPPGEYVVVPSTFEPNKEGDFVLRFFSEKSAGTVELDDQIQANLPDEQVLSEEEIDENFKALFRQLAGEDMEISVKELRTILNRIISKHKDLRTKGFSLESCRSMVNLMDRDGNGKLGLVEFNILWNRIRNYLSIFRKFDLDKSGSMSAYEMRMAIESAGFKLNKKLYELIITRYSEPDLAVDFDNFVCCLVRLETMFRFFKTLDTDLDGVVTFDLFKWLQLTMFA
T1 sequence (P04632 1-268 partner): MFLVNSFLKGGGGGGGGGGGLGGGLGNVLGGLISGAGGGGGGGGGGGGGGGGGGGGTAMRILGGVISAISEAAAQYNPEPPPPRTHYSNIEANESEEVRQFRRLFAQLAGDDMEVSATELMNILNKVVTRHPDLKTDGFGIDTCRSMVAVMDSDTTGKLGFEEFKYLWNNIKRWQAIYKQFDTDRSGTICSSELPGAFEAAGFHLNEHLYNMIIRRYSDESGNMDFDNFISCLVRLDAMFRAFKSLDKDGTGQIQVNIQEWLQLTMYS
Experimental: as §4

Row | SMILES | Effect on SBDP150 staining in NFL ([1]; BAPTA-AM 500 μM) | Effect on activation of calpain 1 and proteolysis of α-spectrin (immunoblot) [2] | Effect on RGC damage (PI-positive RGCs) [3] | IC50 [4] | Effect on calcium-induced activation (autolysis) of calpains 1 and 2 and SBDP150 in retinal lysate [5] | IC50 [6] | Effect on SBDP150 staining in NFL ([1]; BAPTA at lower concentration (3 mM))
1 | CC(=O)OCOC(=O)CN(CC(=O)OCOC(C)=O)c1ccccc1OCCOc1ccccc1N(CC(=O)OCOC(C)=O)CC(=O)OCOC(C)=O [BAPTA-AM] | inhibited the increase in SBDP150 staining | mitigated | partial | – | – | – | –
2 | O=C(O)/C(S)=C/c1c[nH]c2ccc(F)cc12 [PD-151746] | – | – | – | 0.249 µM | also inhibited calpain activation, but not as strongly as SNJ-1945 and ABT-957 | 0.15 µM | –
3 | O=C(NC1CC1)C(=O)C(Cc1ccccc1)NC(=O)[C@H]1CCC(=O)N1Cc1ccccc1 (stereo partly drawn) [ABT-957] | – | – | – | 0.429 µM | inhibited the activation of both calpain 1 and calpain 2 in a dose-dependent manner | 0.403 µM | –
4 | O=C(O)CN(CC(=O)O)c1ccccc1OCCOc1ccccc1N(CC(=O)O)CC(=O)O [BAPTA] | – | mitigated; also recorded: inhibited the autolytic activation of calpain 1 | almost completely inhibited | – | – | – | reduced SBDP150 staining
